The text below walks through data of article PMC8693618 (Bioorganic & medicinal chemistry, 2021).

Like-named read-outs stand apart in the source and are kept apart here.

The test system of data set [1] is Plasma Protein. The settings on record: human; previously determined ref 8; cited from earlier work.
The subject of data set [2] is Plasma Protein. The settings on record: rat; previously determined ref 8; cited from earlier work.
For data set [3] the following is noted: mouse, rat, and human plasma; previously determined ref 8; cited from earlier work.
The next data set has as its system Caco2. The settings on record: previously determined ref 8; cited from earlier work.
The conditions of data set [4]: passive permeability; previously determined ref 8; cited from earlier work.
Data set [5] relates to Plasma Protein. The settings on record: mouse; previously determined ref 8; cited from earlier work.
A further data set has as its target human PANK3 (Homo sapiens, UniProt Q9H999). The settings on record: tested up to 10 μM.
Data set [6] can be described thus: PAMPA passive permeability. Type of data set: in vitro ADME.

Sequence of human PANK3 (Q9H999 whole entry): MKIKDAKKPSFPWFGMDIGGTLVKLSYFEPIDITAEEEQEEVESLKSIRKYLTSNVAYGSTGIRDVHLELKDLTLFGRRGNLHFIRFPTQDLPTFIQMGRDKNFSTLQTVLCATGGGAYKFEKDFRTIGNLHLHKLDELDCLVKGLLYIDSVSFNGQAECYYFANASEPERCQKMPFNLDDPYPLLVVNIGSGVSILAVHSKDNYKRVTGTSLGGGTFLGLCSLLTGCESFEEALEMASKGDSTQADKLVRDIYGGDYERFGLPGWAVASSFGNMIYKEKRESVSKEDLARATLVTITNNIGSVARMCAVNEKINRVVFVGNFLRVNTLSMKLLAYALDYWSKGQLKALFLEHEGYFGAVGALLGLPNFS

For the compound `CC(C)c1ccc(CC(=O)N2CCN(c3ccc(C#N)nn3)CC2)cc1` [Compound 57, 6-(4-(2-(4-isopropylphenyl)acetyl)piperazin-1-yl) pyridazine-3-carbonitrile], the “Plasma Protein Binding” value with Plasma Protein [1] is recorded as 93%; with Plasma Protein [2], 91%; in the data set with Plasma Protein [5], 92%. Moreover, in data set [3], the “Plasma Stability T1/2” value is given as more than 48 h. Besides, the “Caco2 Permeability A/B” value in the data set with Caco2 was 30.2 ×10⁻⁶ cm/s. Besides, in data set [4], the PAMPA is given as 413 1 × 10^−6 cm/s.
Turning to `CCc1ccc(NC(=O)N2CCN(c3ccc(C#N)cn3)CC2)cc1` [Compound 3, 4-(5-cyanopyridin-2-yl)-N-(4-ethylphenyl)piperazine-1-carboxamide], the “PANK3 inhibitory activity in words” value on human PANK3 was “did not show activity”.
On the same count and under the same terms, as for `N#Cc1ccc(N2CCN(C(=O)Nc3ccc(Br)cc3)CC2)nc1` [Compound 14, N-(4-bromophenyl)-4-(5-cyanopyridin-2-yl)piperazine-1-carboxamide], the entry is “inactive”.
On to `CC(C)(C)c1ccc(NC(=O)N2CCN(c3ccc(C#N)cn3)CC2)cc1` [Compound 1, N-(4-(tert-butyl)phenyl)-4-(5-cyanopyridin-2-yl) piperazine-1-carboxamide], for which, in data set [6], the PAMPA was 1232 1 × 10^−6 cm/s.
For the compound `CCCCc1ccc(NC(=O)N2CCN(c3ccc(C#N)cn3)CC2)cc1` [Compound 8, N-(4-butylphenyl)-4-(5-cyanopyridin-2-yl)piperazine-1-carboxamide], the “PANK3 inhibitory activity in words” value at human PANK3 was “did not show activity”.
On the same count and under the same terms, as for `CC(C)c1ccc(C(=O)CN2CCN(c3ccc(C#N)cn3)CC2)cc1` [Compound 32, 6-(4-(2-(4-isopropylphenyl)-2-oxoethyl)piperazin-1-yl)nicotinonitrile], the entry is “loss of activity”; as for `N#Cc1ccc(N2CCN(C(=O)Nc3ccc(C(F)(F)F)cc3)CC2)nc1` [Compound 18, 4-(5-cyanopyridin-2-yl)-N-(4-(trifluoromethyl)phenyl)piperazine-1-carboxamide], “inactive”; as for `CC(C)c1ccc(C(=O)N2CCN(c3ccc(C#N)cn3)CC2)cc1` [Compound 28, 6-(4-(4-isopropylbenzoyl)piperazin-1-yl) nicotinonitrile], “complete loss of activity”.
On to `CC(C)c1ccc(NC(=O)N2CCN(c3ccc(C#N)nn3)CC2)cc1` [Compound 56, 4-(6-cyanopyridazin-3-yl)-N-(4-isopropylphenyl) piperazine-1-carboxamide], for which, in data set [6], the PAMPA is 316 1 × 10^−6 cm/s.
